Measured values as given in patent US5750515A, “Cancer metastasis inhibitor” (Taiho Pharmaceutical Co., Ltd., priority 1995, dated 1998).

How the values were obtained:
[1] = system: 4-1ST (human stomach cancer); assay: Tumor growth inhibitory effect (4-1ST subcutaneous solid tumor in nude mice); assay type: in vivo, human cells in SPF BALB/c-nu/nu male mice; details: tumor weight at 3 weeks vs non-treated
Experimental: (§1) Each of 4-1ST (human stomach cancer) and LC-6 (human lung cancer) cell lines grown subcutaneously as solid tumors in mice, were cut into rectangular pieces measuring 2 mm×2 mm×2 mm and were then transplanted subcutaneously into the right backs of SPF BALB/c-nu/nu male mice (7 week old) by use of a needle for transplantation. Using the equation shown below, the estimated volume of tumor was determined. When the estimated volume of tumor became 100-250 mm^3, the mice were allocated. To the grouped mice were administered various doses of Am 555S, 5-fluorouracil (5-FU) and Cisplatin (CDDP). […] More specifically, Am 555S was orally administered for three terms, each term consisting of five consecutive administration days and two non-administration days, 5-FU was administered intravenously through the tail vein for consecutive five days, and CDDP was administered once intravenously through the tail vein. After three weeks from the administration commencement, the mice were killed and the tumor growth inhibition rates were determined from the rate of tumor weights to that of the non-treated group, so as to determine the effect of growth inhibition of the tumor.

[2] = system: TMK-1 (human stomach cancer); assay: Experimental liver metastasis (TMK-1 human stomach cancer transplanted into the spleen of nude mice), increased life span; assay type: in vivo, human cells in SPF BALB/c-nu/nu male mice
Experimental: (§2) The effect of cancer metastasis inhibition was measured using the compounds Re 80, Am 55S and Am 555S.
(§3) KM12L4 (human colon cancer), TMK-1 (human stomach cancer) and A549 (human lung cancer) were each transplanted into the spleen of SPF BALB/c-nu/nu male mice (7 week old) in an amount of 1×10^6 cells/mouse. This test was conducted using experimental liver metastasis models.
(§4) The test procedure followed the modified Morikawa et al method (Cancer Research, 48, 1943-1948, (1988)). That is, the in vitro cultured cells were collected using 0.25% trypsin--0.02% EDTA or 0.02% EDTA and were then washed with physiological phosphate buffer saline. After the number of the cells was counted, the cells were diluted to 10^6 cells/50 μl. Next, each mouse was incised at their left abdomen after being anesthetized with 30 mg/kg of Nembutal and then the spleen was exposed. With a 28 gauge needle attached syringe, 50 μl of the above-prepared suspension containing 1×10^6 cells/50 μl was injected into the spleen. After two minutes, two portions of blood vessels of the spleen were ligated using a Liga clip and the spleen was removed. The incision site was then closed using a kyapher suture. Each of the compounds Re 80, Am 55S and Am 555S, which is an active ingredient of the cancer metastasis inhibitor of the invention, was suspended in 5% ethanol/olive oil or in 0.5% carboxymethyl cellulose/0.5% Tween 80 (Registered Trademark, produced by Nacalai tesque Co.) and was orally administered to each mouse from next day of the transplantation. In each case, the administration was conducted for three terms, each term consisting of five consecutive administration days and two non-administration days. Evaluation was conducted using the increased life span (ILS) in comparison to the control solvent group as an evaluation index. The ILS of all-trans-retinoic acid (ATRA), known to have cancer metastasis inhibiting properties, was also measured with the same test procedure.

[3] = system: genes considered to be related to cancer metastasis and infiltration; details: as reported in the background art; concentration dependent manner; cited from earlier work
[4] = system: experimental liver metastasis models (KM12L4, TMK-1, A549); assay: Effect on the experimental liver metastasis, overall (KM12L4, TMK-1 and A549 models); assay type: in vivo, human cells in SPF BALB/c-nu/nu male mice; details: for maximum ILS as compared with all-trans-retinoic acid (ATRA) / advantage over all-trans-retinoic acid (ATRA) in ILS: comparison with ATRA, in words; for inhibition of cancer metastasis: conclusion in words; for survival time of the mouse: conclusion in words from Table 1; for maximum value of the ILS as compared with the control group: maximum over cell lines and doses of Table 1
Experimental: as §2, §3, §4

[5] = system: A549 (human lung cancer); assay: Experimental liver metastasis (A549 human lung cancer transplanted into the spleen of nude mice), increased life span; assay type: in vivo, human cells in SPF BALB/c-nu/nu male mice
Experimental: as §2, §3, §4

[6] = system: KM12L4 (human colon cancer); assay: Experimental liver metastasis (KM12L4 human colon cancer transplanted into the spleen of nude mice), increased life span; assay type: in vivo, human cells in SPF BALB/c-nu/nu male mice
Experimental: as §2, §3, §4

[7] = Toxicity test, oral, 3 weeks; assay type: in vivo, SPF ICR male mice; details: consecutive 3 weeks, 6 mice
Experimental: SPF ICR male mice (5 week old) were used as divided into groups each consisting of 6 mice. To the group to be administered with the compound Re 80, the group to be administered with the compound Am 55S and the group to be administered with the compound Am 555S were orally administered 2 mg/kg of the compound Re 80 per day, 640 mg/kg of the compound Am 55S per day and 16 mg/kg of the compound Am 555S per day for consecutive 3 weeks, respectively.

[8] = system: LC-6 (human lung cancer); assay: Tumor growth inhibitory effect (LC-6 subcutaneous solid tumor in nude mice); assay type: in vivo, human cells in SPF BALB/c-nu/nu male mice; details: tumor weight at 3 weeks vs non-treated
Experimental: as §1

[9] = system: 4-1ST (human stomach cancer) and LC-6 (human lung cancer); assay: Tumor growth inhibitory effect, overall (4-1ST and LC-6); assay type: in vivo, human cells in SPF BALB/c-nu/nu male mice
Experimental: as §1

[10] = 2 mg/kg oral, 3 terms of 5 days on/2 off
[11] = 8 mg/kg oral, 3 terms of 5 days on/2 off

O=c1[nH]cc(F)c(=O)[nH]1 [5-FU, 5-fluorouracil, reference compound]
Tumor Growth Inhibition Rate ([1]; 19 mg/kg i.v. (tail vein), consecutive five days): 50.9

CC1=C(/C=C/C(C)=C/C=C/C(C)=C/C(=O)O)C(C)(C)CCC1 [ATRA, all-trans-retinoic acid, reference compound]
Increased life span (ILS %) ([2]; TMK-1, 8 mg/kg, same test procedure, vs control solvent group): 22%
expression of genes related to cancer metastasis and infiltration [3]: can prevent the expression of these genes to interdict metastasis and infiltration of cancer cells in concentration dependent manner

C[Si](C)(C)c1cc(NC(=O)c2ccc(C(=O)O)cc2)cc([Si](C)(C)C)c1 [Am 55S, 4-[3,5-bis(trimethylsilyl)phenylcarbamoyl] benzoic acid]
maximum ILS as compared with all-trans-retinoic acid (ATRA) [4]: higher
inhibition of cancer metastasis [4]: effective to inhibit cancer metastasis
survival time of the mouse [4]: remarkably prolonged
maximum value of the ILS as compared with the control group [4]: 42%
Increased life span (ILS %) ([5]; po, 100 mg/kg, 120 h): 37%
Increased life span (ILS %) ([5]; po, 300 mg/kg, 120 h): 6%
Increased life span (ILS %) ([6]; po, 100 mg/kg, 120 h): 14%
Increased life span (ILS %) ([6]; po, 300 mg/kg, 120 h): 42%
death ([7]; 640 mg/kg per day oral): No death occurred
notable side effect ([7]; 640 mg/kg per day oral): no notable side effect occurred
Increased life span (ILS %) ([2]; po, 100 mg/kg, 120 h): 39%
Increased life span (ILS %) ([2]; po, 300 mg/kg, 120 h): 30%

C[Si](C)(C)c1cc(C(=O)Nc2ccc(C(=O)O)cc2)cc([Si](C)(C)C)c1 [Am 555S, 4-[3,5-bis(trimethylsilyl)phenylcarboxamide] benzoic acid]
advantage over all-trans-retinoic acid (ATRA) in ILS [4]: marked advantages
maximum ILS as compared with all-trans-retinoic acid (ATRA) [4]: higher
inhibition of cancer metastasis [4]: effective to inhibit cancer metastasis
survival time of the mouse [4]: remarkably prolonged
maximum value of the ILS as compared with the control group [4]: 71%
Tumor Growth Inhibition Rate [8, 10]: 2.7
Tumor Growth Inhibition Rate [8, 11]: 13.7
Increased life span (ILS %) ([5]; A549, 4 mg/kg oral, 3 terms of 5 days on/2 off, vs control solvent group): 57%
Increased life span (ILS %) ([5]; A549, 16 mg/kg oral, 3 terms of 5 days on/2 off, vs control solvent group): 30%
Increased life span (ILS %) ([6]; KM12L4, 4 mg/kg oral, 3 terms of 5 days on/2 off, vs control solvent group): 5%
Increased life span (ILS %) ([6]; KM12L4, 16 mg/kg oral, 3 terms of 5 days on/2 off, vs control solvent group): 22%
death ([7]; 16 mg/kg per day oral): No death occurred
notable side effect ([7]; 16 mg/kg per day oral): no notable side effect occurred
tumor growth inhibition rates as compared with 5-FU and CDDP ([9]; comparison in words from Table 2): extremely low tumor growth inhibition rates
tumor growth inhibition activity ([9]; conclusion in words from Table 2): no tumor growth inhibition activity
Increased life span (ILS %) ([2]; TMK-1, 4 mg/kg oral, 3 terms of 5 days on/2 off, vs control solvent group): 59%
Increased life span (ILS %) ([2]; TMK-1, 16 mg/kg oral, 3 terms of 5 days on/2 off, vs control solvent group): 71%
Tumor Growth Inhibition Rate [1, 10]: 2.7
Tumor Growth Inhibition Rate ([1]; 4 mg/kg oral, 3 terms of 5 days on/2 off): -4.9
Tumor Growth Inhibition Rate [1, 11]: 8.7

[NH2][Pt]([NH2])([Cl])[Cl] [CDDP, Cisplatin, reference compound]
Tumor Growth Inhibition Rate ([8]; 7 mg/kg i.v. (tail vein), once): 52.3

CC1(C)CCC(C)(C)c2cc(C(=O)C=C(O)c3ccc(C(=O)O)cc3)c(O)cc21 [Re 80, 4-[1-hydroxy-3-oxo-3-(5,6,7,8-tetrahydro-5,5,8,8-tetramethyl-3-hydroxy-2-naphthalenyl)-1-propenyl] benzoic acid]
advantage over all-trans-retinoic acid (ATRA) in ILS [4]: marked advantages
maximum ILS as compared with all-trans-retinoic acid (ATRA) [4]: higher
inhibition of cancer metastasis [4]: effective to inhibit cancer metastasis
survival time of the mouse [4]: remarkably prolonged
maximum value of the ILS as compared with the control group [4]: 50%
Increased life span (ILS %) ([5]; po, 0.5 mg/kg, 120 h): 19%
Increased life span (ILS %) ([5]; po, 2 mg/kg, 120 h): 22%
Increased life span (ILS %) ([6]; po, 0.5 mg/kg, 120 h): 23%
Increased life span (ILS %) ([6]; po, 2 mg/kg, 120 h): 34%
death ([7]; 2 mg/kg per day oral): No death occurred
notable side effect ([7]; 2 mg/kg per day oral): no notable side effect occurred
Increased life span (ILS %) ([2]; po, 0.5 mg/kg, 120 h): 36%
Increased life span (ILS %) ([2]; po, 2 mg/kg, 120 h): 50%
